US20240132484A1, “BROAD SPECTRUM ANTIVIRAL COMPOUNDS TARGETING THE SKI COMPLEX” (priority 2020, published 2024)
Several values for one entry are separate records, joined by “and”; a condition that tells them apart may be missing. Identical values can stand only once. Like-named read-outs stand apart in the source and are kept apart here.

Columns and labels:
cells (nuclei count) = details: for Relative cell count to DMSO controls, Average 1 μM / Relative cell count to DMSO controls, Average 5 μM / Relative cell count to DMSO controls, Average 10 μM / Relative cell count to DMSO controls, Average 25 μM / Relative cell count to DMSO controls, Average 50 μM: toxicity data, 100=DMSO control; for Toxicity Data, Average, Mean: average of Exp 1-3 (SMW475, SMW477, SMW478); for Relative cell count to DMSO controls, Average (for correlation analysis): average value over the 5 tested concentrations (1 to 50 uM)
SARS2 = assay type: cell-based, SARS-CoV-2; details: for Percentage Inhibition Average 1 μM / Screening data (Relative infection to DMSO controls) Average 1 μM: SARS2, 1 μM; for Screening data (Relative infection to DMSO controls) Average 1 μM / Screening data (Relative infection to DMSO controls) Average 5 μM / Screening data (Relative infection to DMSO controls) Average 10 μM / Screening data (Relative infection to DMSO controls) Average 25 μM / Screening data (Relative infection to DMSO controls) Average 50 μM / Average (relative infection to DMSO over the 5 tested concentrations): 100=DMSO control; for Percentage Inhibition Average 5 μM / Screening data (Relative infection to DMSO controls) Average 5 μM: SARS2, 5 μM; for Percentage Inhibition Average 10 μM / Screening data (Relative infection to DMSO controls) Average 10 μM: SARS2, 10 μM; for Percentage Inhibition Average 25 μM / Screening data (Relative infection to DMSO controls) Average 25 μM: SARS2, 25 μM; for Percentage Inhibition Average 50 μM / Screening data (Relative infection to DMSO controls) Average 50 μM: SARS2, 50 μM; for Average (relative infection to DMSO over the 5 tested concentrations): SARS2, average over 1 to 50 uM; for Infection Data, Average, Mean: average of Exp 1-3 (SMW475, SMW477, SMW478)
[1] = Exp 1 (SMW475), 10 uM, single well
[2] = Exp 1 (SMW475), 25 uM, single well
[3] = Exp 1 (SMW475), 50 uM, single well
[4] = Exp 2 (SMW477), 1 uM, single well
[5] = Exp 2 (SMW477), 5 uM, single well
[6] = Exp 2 (SMW477), 10 uM, single well
[7] = Exp 2 (SMW477), 50 uM, single well
[8] = Exp 3 (SMW478), 1 uM, Greiner Celigo plates
[9] = Exp 3 (SMW478), 5 uM, Greiner Celigo plates
[10] = Exp 3 (SMW478), 10 uM, Greiner Celigo plates

`COC(=O)c1csc(CN(CCN(C)C)Cc2ccccc2)c1` [SILCS30] was tested. Which “Relative cell count to DMSO controls, Average 1 μM” value (cells (nuclei count)) did it give?
Its value is 108.24.

And the “Relative cell count to DMSO controls, Average 5 μM” value (cells (nuclei count))?
Its value is 110.62.

And the “Relative cell count to DMSO controls, Average 10 μM” value (cells (nuclei count))?
The value was 102.59.

And the “Relative cell count to DMSO controls, Average 25 μM” value (cells (nuclei count))?
The value was 104.38.

What about the “Relative cell count to DMSO controls, Average 50 μM” value (cells (nuclei count)) of the same compound?
Its value is 86.57.

And the “Toxicity Data, Average, Mean” value (cells (nuclei count); n 9, 1 uM)?
The value was 108.24%.

And the “Toxicity Data, Average, Mean” value (cells (nuclei count); n 9, 5 uM)?
Its value is 110.62%.

And the “Toxicity Data, Average, Mean” value (cells (nuclei count); n 9, 10 uM)?
Its value is 102.59%.

And the “Toxicity Data, Average, Mean” value (cells (nuclei count); n 9, 25 uM)?
Its value is 104.38%.

What about the “Toxicity Data, Average, Mean” value (cells (nuclei count); n 9, 50 uM) of the same compound?
The value was 86.57%.

And the “Relative cell count to DMSO controls, Average (for correlation analysis)” value (cells (nuclei count))?
Its value is 102.48.

And the “SARS2 antiviral activity” value (SARS2)?
The value was “decrease in activity”.

What about the “Percentage Infection Relative to Appropriate DMSO Control with Avg Background Subtraction” value (SARS2; Exp 1 (SMW475), 1 uM, single well) of the same compound?
Its value is 105.27% and 104.72% and 85.58%.

What about the “Percentage Infection Relative to Appropriate DMSO Control with Avg Background Subtraction” value (SARS2; [1]) of the same compound?
Its value is 111.40% and 92.91% and 108.37%.

What about the “Percentage Infection Relative to Appropriate DMSO Control with Avg Background Subtraction” value (SARS2; [2]) of the same compound?
Its value is 63.92% and 51.24% and 55.41%.

And the “Percentage Infection Relative to Appropriate DMSO Control with Avg Background Subtraction” value (SARS2; [3])?
Its value is 32.13% and 25.36% and 23.71%.

What about the “Percentage Infection Relative to Appropriate DMSO Control with Avg Background Subtraction” value (SARS2; [4]) of the same compound?
The value was 113.51% and 96.27% and 114.57%.

What about the “Percentage Infection Relative to Appropriate DMSO Control with Avg Background Subtraction” value (SARS2; [5]) of the same compound?
Its value is 117.23% and 99.87% and 114.31%.

And the “Percentage Infection Relative to Appropriate DMSO Control with Avg Background Subtraction” value (SARS2; [6])?
The value was 121.60% and 100.99% and 139.28%.

What about the “Percentage Infection Relative to Appropriate DMSO Control with Avg Background Subtraction” value (SARS2; Exp 2 (SMW477), 25 uM, single well) of the same compound?
The value was 71.18% and 69.34% and 78.15%.

And the “Percentage Infection Relative to Appropriate DMSO Control with Avg Background Subtraction” value (SARS2; [7])?
The value was 17.82% and 25.00% and 26.06%.

And the “Percentage Infection Relative to Appropriate DMSO Control with Avg Background Subtraction” value (SARS2; [8])?
Its value is 81.75% and 100.71% and 99.49%.

What about the “Percentage Infection Relative to Appropriate DMSO Control with Avg Background Subtraction” value (SARS2; [9]) of the same compound?
The value was 89.39% and 93.72% and 82.15%.

And the “Percentage Infection Relative to Appropriate DMSO Control with Avg Background Subtraction” value (SARS2; [10])?
Its value is 73.78% and 69.60% and 68.94%.

And the “Percentage Infection Relative to Appropriate DMSO Control with Avg Background Subtraction” value (SARS2; Exp 3 (SMW478), 25 uM, Greiner Celigo plates)?
The value was 79.03% and 71.83% and 64.72%.

What about the “Percentage Inhibition Average 1 μM” value (SARS2) of the same compound?
The value was −0.21%.

What about the “Screening data (Relative infection to DMSO controls) Average 1 μM” value (SARS2) of the same compound?
The value was 100.21.

What about the “Percentage Inhibition Average 5 μM” value (SARS2) of the same compound?
The value was 15.19%.

And the “Screening data (Relative infection to DMSO controls) Average 5 μM” value (SARS2)?
Its value is 84.81.

What about the “Percentage Inhibition Average 10 μM” value (SARS2) of the same compound?
Its value is 1.46%.

What about the “Screening data (Relative infection to DMSO controls) Average 10 μM” value (SARS2) of the same compound?
Its value is 98.54.

And the “Percentage Inhibition Average 25 μM” value (SARS2)?
The value was 32.80%.

And the “Screening data (Relative infection to DMSO controls) Average 25 μM” value (SARS2)?
Its value is 67.20.

And the “Percentage Inhibition Average 50 μM” value (SARS2)?
Its value is 75.16%.

What about the “Screening data (Relative infection to DMSO controls) Average 50 μM” value (SARS2) of the same compound?
The value was 24.84.

And the “Average (relative infection to DMSO over the 5 tested concentrations)” value (SARS2)?
The value was 75.12.

What about the “Infection Data, Average, Mean” value (SARS2; n 9, 1 uM) of the same compound?
Its value is 100.21%.

What about the “Infection Data, Average, Mean” value (SARS2; n 9, 5 uM) of the same compound?
The value was 84.81%.

What about the “Infection Data, Average, Mean” value (SARS2; n 9, 10 uM) of the same compound?
Its value is 98.54%.

What about the “Infection Data, Average, Mean” value (SARS2; n 9, 25 uM) of the same compound?
The value was 67.20%.

And the “Infection Data, Average, Mean” value (SARS2; n 9, 50 uM)?
Its value is 24.84%.

`COC(=O)c1csc(CN(CCN(C)C)Cc2cccs2)c1` [SILCS29] was tested. Which “Relative cell count to DMSO controls, Average 1 μM” value (cells (nuclei count)) did it give?
The value was 104.12.

And the “Relative cell count to DMSO controls, Average 5 μM” value (cells (nuclei count))?
Its value is 110.81.

What about the “Relative cell count to DMSO controls, Average 10 μM” value (cells (nuclei count)) of the same compound?
The value was 90.99.

And the “Relative cell count to DMSO controls, Average 25 μM” value (cells (nuclei count))?
The value was 101.15.

What about the “Relative cell count to DMSO controls, Average 50 μM” value (cells (nuclei count)) of the same compound?
The value was 67.81.

And the “Toxicity Data, Average, Mean” value (cells (nuclei count); n 9, 1 uM)?
Its value is 104.12%.

And the “Toxicity Data, Average, Mean” value (cells (nuclei count); n 9, 5 uM)?
Its value is 110.81%.

What about the “Toxicity Data, Average, Mean” value (cells (nuclei count); n 9, 10 uM) of the same compound?
The value was 90.99%.

What about the “Toxicity Data, Average, Mean” value (cells (nuclei count); n 9, 25 uM) of the same compound?
The value was 101.15%.

What about the “Toxicity Data, Average, Mean” value (cells (nuclei count); n 9, 50 uM) of the same compound?
Its value is 67.81%.

What about the “Relative cell count to DMSO controls, Average (for correlation analysis)” value (cells (nuclei count)) of the same compound?
Its value is 94.98.

And the “Percentage Infection Relative to Appropriate DMSO Control with Avg Background Subtraction” value (SARS2; Exp 1 (SMW475), 5 uM, single well)?
The value was 1.25% and −0.49% and 2.25%.

And the “Percentage Infection Relative to Appropriate DMSO Control with Avg Background Subtraction” value (SARS2; [1])?
The value was 57.43% and 82.75% and 79.22%.

And the “Percentage Infection Relative to Appropriate DMSO Control with Avg Background Subtraction” value (SARS2; [2])?
Its value is 13.47% and 21.51% and 26.64%.

And the “Percentage Infection Relative to Appropriate DMSO Control with Avg Background Subtraction” value (SARS2; [3])?
Its value is 13.24% and 10.68% and 10.82%.

What about the “Percentage Infection Relative to Appropriate DMSO Control with Avg Background Subtraction” value (SARS2; [4]) of the same compound?
Its value is 96.79% and 118.82% and 112.77%.

What about the “Percentage Infection Relative to Appropriate DMSO Control with Avg Background Subtraction” value (SARS2; [5]) of the same compound?
Its value is 84.54% and 117.80% and 116.09%.

And the “Percentage Infection Relative to Appropriate DMSO Control with Avg Background Subtraction” value (SARS2; [6])?
Its value is 78.23% and 124.37% and 115.30%.

What about the “Percentage Infection Relative to Appropriate DMSO Control with Avg Background Subtraction” value (SARS2; [7]) of the same compound?
Its value is 2.61% and 6.87% and 8.07%.

What about the “Percentage Infection Relative to Appropriate DMSO Control with Avg Background Subtraction” value (SARS2; [8]) of the same compound?
The value was 97.82% and 84.39% and 100.08%.

What about the “Percentage Infection Relative to Appropriate DMSO Control with Avg Background Subtraction” value (SARS2; [9]) of the same compound?
Its value is 95.72% and 88.47% and 77.81%.

What about the “Percentage Infection Relative to Appropriate DMSO Control with Avg Background Subtraction” value (SARS2; [10]) of the same compound?
The value was 99.71% and 91.75% and 106.45%.

And the “Percentage Infection Relative to Appropriate DMSO Control with Avg Background Subtraction” value (SARS2; Exp 3 (SMW478), 50 uM, Greiner Celigo plates)?
The value was 6.88% and −1.19% and −1.09%.

What about the “Percentage Inhibition Average 1 μM” value (SARS2) of the same compound?
Its value is 15.78%.

What about the “Screening data (Relative infection to DMSO controls) Average 1 μM” value (SARS2) of the same compound?
Its value is 84.22.

And the “Percentage Inhibition Average 5 μM” value (SARS2)?
The value was 35.17%.

What about the “Screening data (Relative infection to DMSO controls) Average 5 μM” value (SARS2) of the same compound?
Its value is 64.83.

What about the “Percentage Inhibition Average 10 μM” value (SARS2) of the same compound?
Its value is 7.20%.

And the “Screening data (Relative infection to DMSO controls) Average 10 μM” value (SARS2)?
The value was 92.80.

And the “Percentage Inhibition Average 25 μM” value (SARS2)?
The value was 67.28%.

What about the “Screening data (Relative infection to DMSO controls) Average 25 μM” value (SARS2) of the same compound?
Its value is 32.72.

What about the “Percentage Inhibition Average 50 μM” value (SARS2) of the same compound?
The value was 93.68%.

What about the “Screening data (Relative infection to DMSO controls) Average 50 μM” value (SARS2) of the same compound?
Its value is 6.32.

What about the “Average (relative infection to DMSO over the 5 tested concentrations)” value (SARS2) of the same compound?
Its value is 56.18.

What about the “Infection Data, Average, Mean” value (SARS2; n 9, 1 uM) of the same compound?
Its value is 84.22%.

And the “Infection Data, Average, Mean” value (SARS2; n 9, 5 uM)?
The value was 64.83%.

What about the “Infection Data, Average, Mean” value (SARS2; n 9, 10 uM) of the same compound?
Its value is 92.80%.

And the “Infection Data, Average, Mean” value (SARS2; n 9, 25 uM)?
The value was 32.72%.

And the “Infection Data, Average, Mean” value (SARS2; n 9, 50 uM)?
The value was 6.32%.
